What was measured:
[1] = system: TRAP-1; assay: ATPase activity assay (PiColorLock Gold Phosphate Detection Kit); format: biochemical; conditions: TRAP1 0.5 μM, 0.2 mM ATP, inhibitor 0.520 μM preincubated 30 minutes (FIG. 16)
Experimental: ATPase activity was measured by measuring the release of inorganic phosphates through the PiColorLock Gold Phosphate Detection Kit (Innova Biosciences) according to the manufacturer's manual. TRAP1 (0.5 μM) was cultured with 0.2 mM ATP in 100 mM Tris, 20 mM KCl, and 6 mM MgCl2 under the conditions of pH 7.0 and 37° C. for 3 hours. Thereafter, the PiColorLock Gold reagent and an accelerator (100:1) were added to a 100 μL ATP hydrolyzate sample. After culturing at 25° C. for 5 minutes, the change in color was stopped by adding 10 μL of a stop solution thereto, and the absorbance at 620 nm was measured by SYNERGY NEO microplate reader (BioTek Instruments).
For inhibitory ability analysis, TRAP1 was cultured with a predetermined concentration (0.520 μM) of inhibitor for 30 minutes and then stirred with ATP. Absorbance values were normalized to a DMSO control and data was expressed as % ATPase activity.
For inhibitory ability analysis, TRAP-1 was cultured with a predetermined concentration (0.520 μM) of inhibitor for 30 minutes and then stirred with ATP. Absorbance values were normalized to a DMSO control and data was expressed as % ATPase activity.

[2] = molecular target: T1, TRAP1 (Homo sapiens, UniProt Q12931); assay: Western blot of TRAP1 client proteins (SIRT3, SDHB) in 22Rv1 cell lines; format: cell-based; design: dose or concentration left out as unconfirmed; conditions: 22Rv1 cells, 2 hours, normalized with DMSO (FIG. 24)
T1 construct: endogenous in cells; host or cells: 22Rv1
T1 sequence (Q12931 60-704): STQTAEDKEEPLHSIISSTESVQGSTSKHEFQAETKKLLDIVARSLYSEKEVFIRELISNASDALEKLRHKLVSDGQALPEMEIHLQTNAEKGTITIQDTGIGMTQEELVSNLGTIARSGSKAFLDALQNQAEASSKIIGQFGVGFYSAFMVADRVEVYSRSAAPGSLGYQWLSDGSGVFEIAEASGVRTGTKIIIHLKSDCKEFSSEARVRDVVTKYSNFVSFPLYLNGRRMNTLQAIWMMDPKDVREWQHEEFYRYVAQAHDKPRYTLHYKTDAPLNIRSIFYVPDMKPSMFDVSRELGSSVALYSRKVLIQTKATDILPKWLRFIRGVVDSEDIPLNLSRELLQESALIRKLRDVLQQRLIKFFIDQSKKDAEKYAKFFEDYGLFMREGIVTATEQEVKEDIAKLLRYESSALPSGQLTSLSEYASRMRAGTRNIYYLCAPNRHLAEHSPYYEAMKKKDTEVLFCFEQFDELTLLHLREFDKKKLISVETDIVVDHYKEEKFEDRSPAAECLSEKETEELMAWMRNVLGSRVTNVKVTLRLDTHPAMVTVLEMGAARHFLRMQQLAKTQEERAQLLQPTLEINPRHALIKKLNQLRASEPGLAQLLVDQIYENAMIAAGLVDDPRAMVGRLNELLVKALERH
Experimental: 22Rv1 cell lines were cultured at 37° C. and 5% CO2, and DMEM-low glucose (Sigma) including 10% fetal bovine serum and 1% penicillin & streptomycin was used as the medium.
22Rv1 cell lines were eeded in the number of 5×10^5 on a 60-millimeter plate, and cultured in 3 ml of medium for 24 hours. The next day, the cells were treated with […] SMx and SM-series (SB-U005, SB-U009, SB-U011, SB-U012), mitochondrial heat shock protein 90 (TRAP1) and cultured for 2 hours. Whole cell lysates were made from the cultured cells, electrophoresed, transferred to a PVDF membrane, and then treated with a primary antibody at 4° C. for 18 hours. The next day, the whole cell lysates were treated with a secondary antibody for 1 hour and protein expression was analyzed using a western blotting detection reagent (FIG. 24).
The cultured cells were treated with the SMx molecule and novel compound molecules SB-U005, SB-U009, SB-U011, and SB-U012 synthesized in Example 6 as drugs, and the treatment results were normalized with DMSO.

- concentrations of the client proteins (SIRT3, SDHB) [2]: significantly decreased
SMILES: COC1=C(OC)C(=O)C(CCCCCCCCCC[P+](c2ccccc2)(c2ccccc2)c2ccccc2)=C(C)C1=O [SMx]
- ATPase activity of TRAP-1 [1]: significantly increased according to the concentration

Source: patent publication US12545695B2, “Compounds for inhibiting neovascularization factors and use thereof” (UNIST (ULSAN NATIONAL INSTITUTE OF SCIENCE AND TECHNOLOGY), priority 2019, dated 2026)
